Tests used:
Format in all cases: in vivo, mice (male B6 129SF1/J)
[1] = tested on: free fatty acids; test: Quantification of free fatty acids in liver and serum of WD mice
Excerpt: Animal experiments. Male B6 129SF1/J mice at 6 weeks of age were obtained from Jackson Laboratories (Bar Harbor, ME). Mice were acclimatized to the animal facility for one week. At the start of the experiment, mice were randomly divided into four groups (n=10 for each group). Three of the four groups were fed ad libitum a Western diet (WD) with 40% Kcal from fat and containing 0.15% cholesterol (D12079B, Research Diets) and a sugar water (SW) solution (23.1 g/L d-fructose+18.9 g/L d-glucose) as previously described (DIAMOND model (15)). After 8 weeks, the three groups of WD-fed mice were randomly selected for treatment with vehicle (WD group) or low (WD-50 group) or high dose (WD-100 group) of […]. The WD group was fed WD and drank sugar water. The WD-50 and WD-100 groups were fed WD and drank sugar water containing, respectively, 50 or 100 mg […] per kg body weight. […] Quantification of free fatty acids. Serum and liver FFAs were analyzed using targeted LC-MS experiments performed on a quadrupole-time of flight instrument (TripleTOF 5600+, AB Sciex, Framingham, MA) as previously described with minor modifications (Tables 2 and 5). […] Free fatty acids (FFAs) in the liver and serum were quantified using product ion scan experiments (TripleTOF 5600+, AB Sciex, Framingham, MA). […] “Light” experiments with low collision energy were used for quantification. […]

[2] = tested on: liver proteome; test: Liver untargeted proteomics in WD mice
[3] = I3A levels in fecal material, liver and serum after I3A in drinking water; conditions: WD and sugar water containing I3A vs same WD and SW without I3A
Excerpt: Animal experiments. Male B6 129SF1/J mice at 6 weeks of age were obtained from Jackson Laboratories (Bar Harbor, ME). Mice were acclimatized to the animal facility for one week. At the start of the experiment, mice were randomly divided into four groups (n=10 for each group). Three of the four groups were fed ad libitum a Western diet (WD) with 40% Kcal from fat and containing 0.15% cholesterol (D12079B, Research Diets) and a sugar water (SW) solution (23.1 g/L d-fructose+18.9 g/L d-glucose) as previously described (DIAMOND model (15)). […] The WD group was fed WD and drank sugar water. […] The treatments were continued for another 8 weeks. Water bottles containing SW and I3A or only SW were changed every other day. A fourth group of mice was fed a low-fat control diet (D12450B, Research Diets) and normal water for 16 weeks (CN group) (FIG. 9A). FIG. 9A presents the study design. Mice belonging to the same treatment group were housed together (5 mice/cage). Mice were maintained on 12:12-h light-dark cycles. All procedures were performed in accordance with Texas A&M University Health Sciences Center Institutional Animal Care and Use Committee guidelines under an approved animal use protocol (AUP #2017-0145).
Sample collection. […] FIG. 9B presents the sampling scheme. All fecal pellets were flash frozen in liquid nitrogen after collection. […]

With `O=C([O-])Cc1c[nH]c2ccccc12.[Na+]` [I3A, Indole-3-acetate sodium salt] the “liver total FFA concentration, significance of I3A effect” value ([1]; I3A treatment vs WD) was “no significant effect”, the “liver total FFA concentration, reduction” value ([1]; WD-100 group vs WD, p=0.11) was 36 % reduction and the “liver protein abundance profile (PLS-DA)” value ([2]; WD-50 group vs WD) was “not significantly different from the WD group”. The “liver protein abundance profile (PLS-DA)” value ([2]; WD-100 group vs WD, p<0.001) was “significantly different from the WD group” and the “I3A levels in fecal material, liver and serum” value [3] was “increased I3A levels in fecal material, the liver and serum”.

Reference: patent US20240189279A1, “IMMUNOMODULATORY COMPOSITIONS AND METHODS OF USE THEREOF” (THE TEXAS A&M UNIVERSITY SYSTEM, priority 2022, published 2024)
